Measured values taken from patent US20260276624A1, “PROPHYLACTIC OR THERAPEUTIC AGAINST EXACERBATION OR RECURRENCE OF CANCER, AND SCREENING METHOD THEREFOR” (KEIO UNIVERSITY, priority 2022, published 2026).

Legend:
[1] = test system: COL17A1 KO human colorectal cancer organoids; assay: YAP signaling inhibitor on COL17A1 KO organoids, proportion of LGR5-positive p27-positive cells; type: cell-based; conditions: 20 μM, 2 days
Experimental: A YAP signaling inhibitor was allowed to act on COL17A1 KO organoids to study an effect on dormancy of cancer stem cells. As a YAP signaling inhibitor, MYF-01-37 (CAS No. 2416417-65-5), a low-molecular-weight TEAD inhibitor (TEADi) that disrupts YAP/TAZ-TEAD protein-protein interactions, was used (20 μM, 2 days). […] The scale bar is 100 μm. The right side of FIG. 11 is a graph showing results of measuring the proportion of LGR5-positive p27-positive cells based on the photographs on the left side of FIG. 11.

[2] = test system: Human colorectal cancer organoids (CCO32 strain); assay: Experimental Example 14: organoid xenograft, TEAD inhibitor after irinotecan; type: in vivo, NOG mice
Experimental: The upper row in FIG. 18 is a schematic view showing a schedule of this experiment. Human colorectal cancer organoids (CCO32 strain) were xenotransplanted into the subcutis of immunodeficient NOG mice. Thereafter, irinotecan was administered once a week for three times, followed by administering a TEAD inhibitor over a long period of time to inhibit YAP signaling. Thereafter, administration of the TEAD inhibitor was discontinued. As a TEAD inhibitor, MYF-01-37 (CAS No. 2416417-65-5) was used.
The lower row in FIG. 18 is a group showing change in tumor size in mice of each group over time. In the lower row in FIG. 18, “Vehicle” indicates a result of a group into which only a solvent was administered, “TEADi” indicates a result of a group into which only a TEAD inhibitor was administered, “IRI” indicates a result of a group into which only irinotecan was administered, and “IRI+TEADi” indicates a result of a group into which irinotecan and a TEAD inhibitor were administered.

[3] = test system: human colorectal cancer organoids (CCO32 strain); assay: Camptothecin treatment with or without FAK inhibitor, proportion of LGR5-positive p27-positive cells; type: cell-based; conditions: co-treatment with camptothecin; FAK inhibitor 10 nM, 24 hours / 10 μm as printed; camptothecin 5 days
Experimental: The scale bar is 100 μm. As a FAK inhibitor, PF573228 (CAS No. 869288-64-2) was used (10 μm). In FIG. 13, “FAKi” indicates a FAK inhibitor. FIG. 14 is a graph showing results of measuring the proportion of the LGR5-positive p27-positive cells when the human colorectal cancer organoids are treated or not treated with camptothecin for 5 days in the presence or absence of a FAK inhibitor. In FIG. 14, “N.S.” indicates no significant difference.

[4] = test system: YAP signaling; assay: Nuclear translocation of YAP in camptothecin-treated organoids (confocal); type: cell-based, human; conditions: CCO7 and CCO32 strains, camptothecin treatment
Source text: The scale bar is 100 μm. The right side of FIG. 10 is a graph showing results of measuring the proportion of cells containing YAP that has undergone nuclear translocation based on the photographs on the left side of FIG. 10.

[5] = test system: COL17A1 KO human colorectal cancer organoids; assay: Chemotherapy sensitivity of COL17A1 KO organoids; type: cell-based; conditions: compared to COL17A1 WT and hetero KO organoids
Source text: The chemotherapy sensitivity of COL17A1 KO human colorectal cancer organoids was studied.

[6] = test system: human colorectal cancer organoids; assay: Colony formation of sorted cells after camptothecin treatment of organoids; type: cell-based; conditions: 50 nM; 1,000 sorted cells cultured; day 13 after sorting
Experimental: The human colorectal cancer organoids were treated with camptothecin (CPT) which is a topoisomerase inhibitor (50 nM). Subsequently, the LGR5-positive p27-positive cells, the LGR5-positive p27-negative cells, LGR5-negative p27-positive cells, and LGR5-negative p27-negative cells were sorted and collected with a cell sorter, and 1,000 cells of each type were cultured.
The numerical values in FIG. 4 show the number of colonies (average value±standard error). The scale bar is 1 mm.

[7] = test system: COL17A1, pFAK; assay: Capillary-based immunoassay for COL17A1, pFAK and total FAK in camptothecin-treated organoids; type: cell-based, human; conditions: camptothecin 50 nM; CCO7 and CCO32 strains
[8] = test system: COL17A1 KO human colorectal cancer organoids xenotransplanted in mice; assay: Tumor size after irinotecan in COL17A1 KO xenografts; type: in vivo; conditions: COL17A1 KO vs COL17A1 WT xenografts
Experimental: Subsequently, irinotecan was administered to mice xenotransplanted with COL17A1 KO human colorectal cancer organoids, and the tumor size was measured over time. The upper row in FIG. 8 is a schematic view showing a schedule of this experiment. The lower row in FIG. 8 is a graph showing change in tumor size over time. […] In addition, indicates a significant difference at p<0.05.

[9] = test system: Doxycycline-inducible YAP/TAZ-knockdown human colorectal cancer organoids; assay: Experimental Example 13: YAP/TAZ-knockdown organoid xenograft, doxycycline after irinotecan; type: in vivo, NOG mice; conditions: irinotecan once a week for three times, no doxycycline
Experimental: How the inhibition of YAP signaling affects tumor regrowth after chemotherapy was studied. The upper row in FIG. 17 is a schematic view showing a schedule of this experiment. Doxycycline-inducible YAP/TAZ-knockdown human colorectal cancer organoids were produced and xenotransplanted into the subcutis of immunodeficient NOG mice. Thereafter, irinotecan was administered once a week for three times, followed by administering doxycycline over a long period of time to inhibit YAP signaling. Thereafter, administration of doxycycline was discontinued. The lower row in FIG. 17 is a group showing change in tumor size in mice of each group over time. In the lower row in FIG. 17, “Irinotecan” indicates a result of the group into which only irinotecan was administered, and “Irinotecan +Dox” indicates a result of the group into which irinotecan and doxycycline were administered.

[10] = test system: human colorectal cancer organoids xenotransplanted in mice; assay: In vivo imaging of survival of LGR5-positive cells after irinotecan
Experimental: Whether or not the LGR5-positive p27-positive cells resistant to the chemotherapeutic agent contribute to relapse or recurrence of tumors after chemotherapy was studied in vivo. Specifically, irinotecan was administered to mice xenotransplanted with human colorectal cancer organoids, followed by in vivo imaging and genetic lineage-tracing of the LGR5-positive p27-positive cells and the LGR5-positive p27-negative cells over time.
FIG. 5 is a graph showing results obtained by measuring the survival rate of LGR5-positive p27-positive cells and LGR5-positive p27-negative cells after administration of irinotecan.

[11] = test system: Doxycycline-inducible YAP/TAZ-knockdown human colorectal cancer organoids; assay: Experimental Example 12: doxycycline-inducible YAP/TAZ-knockdown organoid xenograft, irinotecan; type: in vivo, NOG mice; conditions: irinotecan only
Experimental: The upper row in FIG. 15 is a schematic view showing a schedule of this experiment. Doxycycline-inducible YAP/TAZ-knockdown human colorectal cancer organoids were produced and xenotransplanted into the subcutis of immunodeficient NOG mice. Thereafter, irinotecan was administered. […] The scale bar is 100 μm. In the lower row in FIG. 15, “Control” indicates a result of a group into which neither irinotecan nor doxycycline has been administered, “Dox” indicates a result of a group into which only doxycycline was administered, “Irinotecan” indicates a result of a group into which only irinotecan was administered, and “Irinotecan +Dox” indicates a result of a group into which irinotecan and doxycycline were administered. FIG. 16 is a group showing change in tumor size in mice of each group over time. As a result, in FIG. 16, “Control,” “Dox,” “Irinotecan,” and “Irinotecan +Dox” show the same meaning as in the lower row in FIG. 15. In addition, “*” indicates a significant difference at p<0.05.

[12] = irinotecan only, no TEAD inhibitor

## C=CC(=O)N1CCC(C)(Nc2cccc(C(F)(F)F)c2)C1 (stereo not shown) [MYF-01-37]
[1]
  p27-positive cells in COL17A1 KO organoids: led to reappearance of p27-positive cells
[2]; TEAD inhibitor after irinotecan (once a week for three times)
  tumor size: tumor size was reduced to a minimum
[2]; TEAD inhibitor alone
  tumor inhibition effect: did not show any tumor inhibition effect

## CS(=O)(=O)c1cccc(CNc2nc(Nc3ccc4c(c3)CCC(=O)N4)ncc2C(F)(F)F)c1 [PF573228]
[3]
  cell cycle reentry of LGR5-positive p27-positive cells after camptothecin exposure: inhibited cell cycle reentry

## CC[C@@]1(O)C(=O)OCc2c1cc1n(c2=O)Cc2cc3ccccc3nc2-1 [camptothecin]
[4]
  YAP signaling (nuclear translocation of YAP) in LGR5-positive p27-positive cells: activates YAP signaling
[5]
  sensitivity of COL17A1 KO organoids to camptothecin: more sensitive
[6]
  colony formation of LGR5-positive p27-negative cells after camptothecin treatment: showed no colony formation
  colony formation of LGR5-positive p27-positive cells after camptothecin treatment: showed colony formation
[7]
  expression of COL17A1: expression of COL17A1 was deleted
  phosphorylation of FAK: phosphorylation of FAK occurred

## CCc1c2c(nc3ccc(OC(=O)N4CCC(N5CCCCC5)CC4)cc13)-c1cc3c(c(=O)n1C2)COC(=O)[C@]3(O)CC [irinotecan]
[8]
  tumor regeneration after administration of irinotecan: more inhibited in COL17A1 KO xenografts than in COL17A1 WT xenografts
[9]
  therapeutic effect (tumor size over time): transient therapeutic effect
  time of cancer regrowth: ~40 days
[10]
  survival of LGR5-positive p27-negative cells after administration of irinotecan: disappeared during an observation period
  survival of LGR5-positive p27-positive cells after administration of irinotecan: tolerated chemotherapy and remained
[11]
  therapeutic effect (tumor size over time): transient
[11]; three days from administration, immunostaining
  nuclear translocation of YAP in graft: resulted in nuclear translocation of YAP in vivo
[2]; [12]
  therapeutic effect (tumor size over time): transient therapeutic effect
  time of cancer regrowth: ~40 days
